Measured values as given in ChEMBL document CHEMBL1201862, “PubChem BioAssay data set” (2004).
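Briefly, cells in 96-well plates were exposed to five compound concentrations for 48 h, and endpoints were estimated by linear interpolation. GI50: concentration for 50% inhibition of growth.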 Activity calls are given as the source filed them. No stated cut-off is given here; in the data, active = GI50 up to about 1.1 µM and inactive = higher.

What was measured:
Test in all cases: NCI anticancer screen, dose series, 48 h
[1] = system: HT-29
[2] = system: T47D
[3] = system: UO-31
[4] = system: SR
[5] = system: SF-539
[6] = system: BT-549
[7] = system: A549
[8] = system: U-251
[9] = system: DU-145
[10] = system: MOLT-4
[11] = system: Hs-578T
[12] = system: OVCAR-8
[13] = system: SF-268
[14] = system: SNB-19
[15] = system: 786-0
[16] = system: NCI-H460
[17] = system: ACHN
[18] = system: SF-295
[19] = system: K562
[20] = system: RXF 393
[21] = system: HL-60
[22] = system: IGROV-1
[23] = system: MDA-MB-435
[24] = system: NCI-H226
[25] = system: SK-MEL-5
[26] = system: NCI-H23
[27] = system: SNB-75
[28] = system: KM12
[29] = system: OVCAR-5
[30] = system: MDA-N
[31] = system: UACC-257
[32] = system: M14
[33] = system: EKVX
[34] = system: MDA-MB-231
[35] = system: TK-10
[36] = system: MCF7
[37] = system: OVCAR-4
[38] = system: CCRF-CEM
[39] = system: OVCAR-3
[40] = system: NCI-H522
[41] = system: PC-3
[42] = system: CAKI-1
[43] = system: UACC-62
[44] = system: RPMI-8226
[45] = system: SK-MEL-2
[46] = system: Malme-3M
[47] = system: HOP-62
[48] = system: SK-OV-3
[49] = system: HCT-15
[50] = system: NCI/ADR-RES
[51] = system: HCC 2998
[52] = system: SW-620
[53] = system: SN12C
[54] = system: LOX IMVI
[55] = system: SK-MEL-28
[56] = system: COLO 205
[57] = system: HCT-116
[58] = system: HOP-92
[59] = system: A498

Compound: CC(C)=Nn1cnc2c1=NC(C)(C)NC=2C(N)=O
- GI50 [1]: 1 µM (active)
- GI50 [2]: 0.001 µM (active)
- GI50 [3]: > 10 µM (inactive)
- GI50 [4]: > 10 µM (inactive)
- GI50 [5]: > 10 µM (inactive)
- GI50 [6]: > 10 µM (inactive)
- GI50 [7]: > 10 µM (inactive)
- GI50 [8]: > 10 µM (inactive)
- GI50 [9]: > 10 µM (inactive)
- GI50 [10]: > 10 µM (inactive)
- GI50 [11]: > 10 µM (inactive)
- GI50 [12]: > 10 µM (inactive)
- GI50 [13]: > 10 µM (inactive)
- GI50 [14]: > 10 µM (inactive)
- GI50 [15]: > 10 µM (inactive)
- GI50 [16]: > 10 µM (inactive)
- GI50 [17]: > 10 µM (inactive)
- GI50 [18]: > 10 µM (inactive)
- GI50 [19]: > 10 µM (inactive)
- GI50 [20]: > 10 µM (inactive)
- GI50 [21]: > 10 µM (inactive)
- GI50 [22]: > 10 µM (inactive)
- GI50 [23]: > 10 µM (inactive)
- GI50 [24]: > 10 µM (inactive)
- GI50 [25]: > 10 µM (inactive)
- GI50 [26]: > 10 µM (inactive)
- GI50 [27]: > 10 µM (inactive)
- GI50 [28]: > 10 µM (inactive)
- GI50 [29]: > 10 µM (inactive)
- GI50 [30]: > 10 µM (inactive)
- GI50 [31]: > 10 µM (inactive)
- GI50 [32]: > 10 µM (inactive)
- GI50 [33]: > 10 µM (inactive)
- GI50 [34]: 125 nM (active)
- GI50 [35]: > 10 µM (inactive)
- GI50 [36]: > 10 µM (inactive)
- GI50 [37]: > 10 µM (inactive)
- GI50 [38]: > 10 µM (inactive)
- GI50 [39]: > 10 µM (inactive)
- GI50 [40]: > 10 µM (inactive)

Compound: CCOC(=O)C1(F)S(=O)(=O)OCCOS1(=O)=O
- GI50 [41]: > 100 µM (inactive)
- GI50 [1]: > 100 µM (inactive)
- GI50 [42]: > 100 µM (inactive)
- GI50 [2]: > 100 µM (inactive)
- GI50 [43]: > 100 µM (inactive)
- GI50 [44]: > 100 µM (inactive)
- GI50 [45]: > 100 µM (inactive)
- GI50 [46]: > 100 µM (inactive)
- GI50 [3]: > 100 µM (inactive)
- GI50 [4]: > 100 µM (inactive)
- GI50 [5]: > 100 µM (inactive)
- GI50 [6]: > 100 µM (inactive)
- GI50 [7]: > 100 µM (inactive)
- GI50 [8]: > 100 µM (inactive)
- GI50 [9]: > 100 µM (inactive)
- GI50 [10]: > 100 µM (inactive)
- GI50 [11]: 93.3 µM (inactive)
- GI50 [47]: > 100 µM (inactive)
- GI50 [12]: > 100 µM (inactive)
- GI50 [13]: > 100 µM (inactive)
- GI50 [48]: > 100 µM (inactive)
- GI50 [14]: > 100 µM (inactive)
- GI50 [15]: > 100 µM (inactive)
- GI50 [49]: > 100000 nM
- GI50 [50]: > 100 µM (inactive)
- GI50 [51]: > 100 µM (inactive)
- GI50 [52]: > 100 µM (inactive)
- GI50 [17]: > 100 µM (inactive)
- GI50 [18]: > 100 µM (inactive)
- GI50 [20]: > 100 µM (inactive)
- GI50 [53]: > 100 µM (inactive)
- GI50 [23]: > 100 µM (inactive)
- GI50 [24]: > 100 µM (inactive)
- GI50 [25]: > 100 µM (inactive)
- GI50 [26]: > 100 µM (inactive)
- GI50 [54]: > 100 µM (inactive)
- GI50 [27]: > 100 µM (inactive)
- GI50 [28]: > 100 µM (inactive)
- GI50 [29]: > 100 µM (inactive)
- GI50 [55]: > 100 µM (inactive)
- GI50 [30]: > 100 µM (inactive)
- GI50 [31]: > 100 µM (inactive)
- GI50 [56]: > 100 µM (inactive)
- GI50 [32]: > 100 µM (inactive)
- GI50 [33]: > 100 µM (inactive)
- GI50 [35]: > 100 µM (inactive)
- GI50 [57]: > 100 µM (inactive)
- GI50 [36]: > 100 µM (inactive)
- GI50 [37]: > 100 µM (inactive)
- GI50 [39]: > 100 µM (inactive)
- GI50 [40]: > 100 µM (inactive)

Compound: OC1(C(Sc2cc(C(F)(F)F)cc(C(F)(F)F)c2)Sc2cc(C(F)(F)F)cc(C(F)(F)F)c2)C=CCCC1 (stereo not drawn)
- GI50 [1]: 1.08 µM (active)
- GI50 [42]: 1.79 µM (inactive)
- GI50 [2]: 1.25 µM (inactive)
- GI50 [43]: 1.99 µM (inactive)
- GI50 [44]: 1.47 µM (inactive)
- GI50 [46]: 2.77 µM (inactive)
- GI50 [3]: 1.38 µM (inactive)
- GI50 [6]: 3.35 µM (inactive)
- GI50 [7]: 1.63 µM (inactive)
- GI50 [9]: 2.53 µM (inactive)
- GI50 [10]: 1.65 µM (inactive)
- GI50 [11]: 2.95 µM (inactive)
- GI50 [47]: 3.25 µM (inactive)
- GI50 [12]: 2.12 µM (inactive)
- GI50 [13]: 2.54 µM (inactive)
- GI50 [48]: 2.67 µM (inactive)
- GI50 [14]: 2.49 µM (inactive)
- GI50 [15]: 2.39 µM (inactive)
- GI50 [16]: 1.33 µM (inactive)
- GI50 [49]: 1370 nM
- GI50 [50]: 2.93 µM (inactive)
- GI50 [51]: 1.4 µM (inactive)
- GI50 [52]: 1.91 µM (inactive)
- GI50 [17]: 1.85 µM (inactive)
- GI50 [18]: 1.86 µM (inactive)
- GI50 [19]: 1.53 µM (inactive)
- GI50 [20]: 1.75 µM (inactive)
- GI50 [21]: 1.38 µM (inactive)
- GI50 [53]: 2.14 µM (inactive)
- GI50 [22]: 2.38 µM (inactive)
- GI50 [23]: 1.86 µM (inactive)
- GI50 [25]: 9.53 µM (inactive)
- GI50 [26]: 2.58 µM (inactive)
- GI50 [54]: 1.66 µM (inactive)
- GI50 [27]: 2.15 µM (inactive)
- GI50 [58]: 2.83 µM (inactive)
- GI50 [28]: 1.73 µM (inactive)
- GI50 [29]: 0.847 µM (active)
- GI50 [55]: 2.71 µM (inactive)
- GI50 [30]: 2.56 µM (inactive)
- GI50 [31]: 1.2 µM (inactive)
- GI50 [56]: 1.99 µM (inactive)
- GI50 [59]: 1.35 µM (inactive)
- GI50 [32]: 1.81 µM (inactive)
- GI50 [33]: 2.22 µM (inactive)
- GI50 [35]: 1.51 µM (inactive)
- GI50 [57]: 2.12 µM (inactive)
- GI50 [36]: 1.49 µM (inactive)
- GI50 [37]: 1.74 µM (inactive)
- GI50 [38]: 1.61 µM (inactive)
- GI50 [39]: 2.04 µM (inactive)
- GI50 [40]: 1.74 µM (inactive)
